Read-outs that look alike come from different tables or passages of the source.
Assays:
[1] = target: T1, hGCGR (Homo sapiens, UniProt P47871); experiment: Functional cAMP formation (HTRF) in HEK-293 clonal cells expressing hGCGR, 0.1% bovine casein, without or with 1.0% human serum albumin; type: cell-based
T1 construct: expressed in transfected cells
In short: (§1)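 Readings of the HTRF 665/620 nm ratio, which falls as cAMP rises, were converted to nM cAMP using a standard curve after 30 min peptide exposure at 37° C.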

[2] = target: T2, hGIPR (Homo sapiens, UniProt P48546); experiment: Functional cAMP formation (HTRF) in HEK-293 clonal cells expressing hGIPR, 0.1% bovine casein, without or with 1.0% human serum albumin; type: cell-based; conditions: for EC50: cAMP, 0.1% bovine casein (no human serum albumin), geometric mean
T2 construct: expressed in transfected cells
T2 sequence (P48546 22-466): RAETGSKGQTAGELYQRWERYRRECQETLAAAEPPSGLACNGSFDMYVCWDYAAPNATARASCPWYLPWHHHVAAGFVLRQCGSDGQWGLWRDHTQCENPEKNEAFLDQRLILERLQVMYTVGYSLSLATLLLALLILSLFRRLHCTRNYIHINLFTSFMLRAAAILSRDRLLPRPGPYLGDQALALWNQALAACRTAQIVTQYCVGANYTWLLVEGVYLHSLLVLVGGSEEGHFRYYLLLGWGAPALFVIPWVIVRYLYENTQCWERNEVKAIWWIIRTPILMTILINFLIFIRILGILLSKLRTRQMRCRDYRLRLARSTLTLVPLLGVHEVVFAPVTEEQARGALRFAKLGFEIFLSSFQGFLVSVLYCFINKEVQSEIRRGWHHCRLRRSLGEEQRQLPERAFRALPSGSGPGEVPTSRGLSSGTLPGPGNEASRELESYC
In short: as §1

[3] = target: T3, human GLP-1 receptor (hGLP-1R) (Homo sapiens, UniProt P43220); experiment: [125I]-GLP-1 binding, SPA with membranes of HEK293 cells expressing hGLP-1R
T3 construct: expressed in transfected cells; crude membranes
T3 sequence (P43220 24-463): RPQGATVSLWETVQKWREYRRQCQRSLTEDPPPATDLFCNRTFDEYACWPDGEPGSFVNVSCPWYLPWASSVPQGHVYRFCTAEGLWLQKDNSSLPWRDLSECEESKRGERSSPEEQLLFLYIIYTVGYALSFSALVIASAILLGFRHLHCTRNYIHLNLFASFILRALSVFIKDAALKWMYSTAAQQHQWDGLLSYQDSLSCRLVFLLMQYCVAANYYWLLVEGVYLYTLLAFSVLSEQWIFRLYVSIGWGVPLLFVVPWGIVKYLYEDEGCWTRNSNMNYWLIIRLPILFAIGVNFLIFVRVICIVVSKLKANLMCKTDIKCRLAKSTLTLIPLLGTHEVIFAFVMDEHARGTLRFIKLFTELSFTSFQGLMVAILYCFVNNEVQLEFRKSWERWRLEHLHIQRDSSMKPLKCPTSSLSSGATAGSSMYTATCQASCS
Protocol: Two methods are used for the preparation of crude cell membranes.
Method 1: Frozen cell pellets are lysed on ice in hypotonic buffer containing 50 mM Tris HCl, pH 7.5, and Roche Complete™ Protease Inhibitors with EDTA. […] The homogenate is centrifuged at 4° C. at 1100 × g for 10 minutes. The supernatant is collected and stored on ice while the pellets are resuspended in homogenization buffer and rehomogenized as described above. The homogenate is centrifuged at 1100 × g for 10 minutes. The second supernatant is combined with the first supernatant and centrifuged at 35000 × g for 1 hour at 4° C. The resulting membrane pellet is resuspended in homogenization buffer containing protease inhibitors at approximately 1 to 3 mg/mL, quick frozen in liquid nitrogen and stored as aliquots in a -80° C. freezer until use.
The homogenate is centrifuged at 4° C. at 1800 × g for 15 minutes. The supernatant is collected and stored on ice while the pellets are resuspended in homogenization buffer (without DNAse I) and rehomogenized as described above. The homogenate is centrifuged at 1800 × g for 15 minutes. The second supernatant is combined with the first supernatant and centrifuged an additional time at 1800 × g for 15 minutes. The overall supernatant is then centrifuged at 25000 × g for 30 minutes at 4° C. The resulting membrane pellet is resuspended in homogenization buffer (without DNAse I) containing protease inhibitors at approximately 1 to 3 mg/mL and stored as aliquots in a -80° C. freezer until use.
The human GLP-1 receptor binding assay is performed using an SPA format with WGA beads. The binding buffer contains 25 mM HEPES, pH 7.4, 2.5 mM CaCl2, 1 mM MgCl2, 0.1% (w/v) bacitracin, 0.003% (w/v) TWEEN®-20, and Roche Complete™ Protease Inhibitors without EDTA.
Raw CPM data for concentration curves of peptides, Gcg, GLP-1, or GIP are converted to percent inhibition by subtracting nonspecific binding (binding in the presence of excess unlabeled Gcg, GLP-1, or GIP, respectively) from the individual CPM values and dividing by the total binding signal, also corrected by subtracting nonspecific binding. Data are analyzed using four-parameter (curve maximum, curve minimum, IC50, Hill slope) nonlinear regression routines (Genedata Screener, version 12.0.4, Genedata AG, Basal, Switzerland). […] Values for Ki are reported as the geometric mean, with error expressed as the standard error of the mean (SEM) and n is equal to the number of independent replicates (determined in assays performed on different days). Geometric Means are calculated as follows: […]
The Ki Ratio (Ki for native control peptide/Ki for test compound) at each receptor and each species is calculated. The Ki Ratio is a rapid indication of the apparent affinity of a peptide compared to the native control peptide.
n=⅟x means that only one value out of the total number of replicates (x) is used to express the mean. SEM is only calculated when n=2 or greater non-qualified results exist. Means are expressed as GeoMetric means with the standard error of the mean (SEM) and the number of replicates (n) indicated in parenthesis.

[4] = target: hGLP-1R (Homo sapiens, UniProt P43220); experiment: Functional cAMP formation (HTRF) in HEK-293 clonal cells expressing hGLP-1R, 0.1% bovine casein, without or with 1.0% human serum albumin; type: cell-based; set-up: expressed in transfected cells; conditions: for EC50: hGLP-1R EC50, nM (SEM, n), cAMP, 0.1% bovine casein (no human serum albumin), geometric mean
Sequence of hGLP-1R (P43220 24-463): as above
In short: as §1

T1 sequence (P47871 26-477): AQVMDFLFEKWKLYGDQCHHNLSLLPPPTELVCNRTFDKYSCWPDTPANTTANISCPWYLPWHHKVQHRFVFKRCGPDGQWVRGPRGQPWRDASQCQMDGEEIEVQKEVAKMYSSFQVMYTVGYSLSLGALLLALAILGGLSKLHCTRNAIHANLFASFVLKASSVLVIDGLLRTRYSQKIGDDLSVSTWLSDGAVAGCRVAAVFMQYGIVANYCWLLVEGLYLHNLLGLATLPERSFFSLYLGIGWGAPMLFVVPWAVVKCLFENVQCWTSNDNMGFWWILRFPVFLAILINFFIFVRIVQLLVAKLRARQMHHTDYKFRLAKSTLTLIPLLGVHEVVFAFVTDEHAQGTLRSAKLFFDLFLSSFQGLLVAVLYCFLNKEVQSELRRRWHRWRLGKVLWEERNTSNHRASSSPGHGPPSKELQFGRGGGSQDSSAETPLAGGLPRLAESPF

Compound `CC[C@H](C)[C@H](NC(=O)[C@H](CC(C)C)NC(=O)[C@](C)(Cc1ccc(O)cc1)NC(=O)[C@@H](CCC(=O)O)NC(=O)[C@@H](NC(=O)[C@H](Cc1ccccc1)NC(=O)[C@H](CCC(=O)O)NC(=O)C(C)(C)NC(=O)[C@H](CCC(N)=O)NC(=O)[C@H](C)NC(=O)[C@H](CCCCNC(=O)COCCOCCNC(=O)COCCOCCNC(=O)CC[C@H](NC(=O)CCCCCCCCCCCCC(=O)O)C(=O)O)NC(=O)[C@H](CCCN)NC(=O)[C@H](CC(=O)O)NC(=O)[C@H](CC(C)C)NC(=O)[C@](C)(CC(C)C)NC(=O)[C@@H](NC(=O)[C@](C)(CO)NC(=O)[C@H](Cc1ccc(O)cc1)NC(=O)[C@H](CC(=O)O)NC(=O)[C@H](CO)NC(=O)[C@@H](NC(=O)[C@](C)(Cc1ccccc1F)NC(=O)[C@@H](NC(=O)CNC(=O)[C@H](CCC(=O)O)NC(=O)C(C)(C)NC(=O)[C@@H](N)Cc1ccc(O)cc1)[C@@H](C)O)[C@@H](C)O)[C@@H](C)CC)[C@@H](C)CC)C(=O)N[C@@H](CCC(=O)O)C(=O)NCC(=O)NCC(=O)N[C@@H](CCCCNC(=O)COCCOCCNC(=O)COCCOCCNC(=O)CC[C@H](NC(=O)CCCCCCCCCCCCC(=O)O)C(=O)O)C(=O)N[C@@H](CO)C(=O)N[C@@H](CO)C(=O)NCC(=O)N[C@@H](C)C(=O)N1CCC[C@H]1C(=O)N1CCC[C@H]1C(=O)N1CCC[C@H]1C(=O)N[C@@H](CO)C(N)=O` [Example 49] has an EC50 ([1]; 0.1% bovine casein and 1.0% human serum albumin, 37° C., geometric mean, read-out: hGCGR EC50, nM (SEM, n)) of over 9950 nM, an EC50 ([1]; cAMP, incubated at 37° C., 0.1% bovine casein (no human serum albumin), geometric mean, read-out: hGCGR EC50, nM (SEM, n)) of over 9950 nM and an Emax ([2]; HEK293, 0.1% bovine casein and 1.0% human serum albumin, 37° C., percent of maximal response to GIP(1-42)NH2, read-out: hGIPR Emax, % ± SEM) of 92.4 ± 4.07%. It also gave an Emax ([2]; HEK293, percent of maximal response to GIP(1-42)NH2, 37° C., 0.1% bovine casein, arithmetic mean, read-out: hGIPR Emax, % ± SEM) of 91 ± 1.7%, an EC50 ([2]; incubated at 37° C., read-out: hGIPR EC50, nM (SEM, n)) of 0.0205 nM and a Ki ([3]; human GLP-1R, geometric mean (SEM, n), read-out: Binding Affinity Ki, nM (SEM, n) hGLP-1R) of 1.21 nM. It also gave an Emax ([4]; HEK293, percent of maximal response to GLP-1(7-36)NH2, 37° C., 0.1% bovine casein, arithmetic mean, read-out: hGLP-1R Emax, % ± SEM) of 97.3 ± 5.46%.
For `CC[C@H](C)[C@H](NC(=O)[C@H](CC(C)C)NC(=O)[C@](C)(Cc1ccc(O)cc1)NC(=O)[C@H](CCCCNC(=O)COCCOCCNC(=O)[C@H]1CC[C@H](CNC(=O)CC[C@H](NC(=O)CCCCCCCCCOc2ccc(C(=O)O)cc2)C(=O)O)CC1)NC(=O)[C@@H](NC(=O)[C@H](Cc1ccccc1)NC(=O)[C@H](CCCN)NC(=O)C(C)(C)NC(=O)[C@H](CCC(N)=O)NC(=O)[C@H](C)NC(=O)[C@H](CCC(N)=O)NC(=O)[C@H](CCCN)NC(=O)[C@H](CC(=O)O)NC(=O)[C@H](CC(C)C)NC(=O)[C@](C)(CC(C)C)NC(=O)[C@@H](NC(=O)C(C)(C)NC(=O)[C@H](Cc1ccncc1)NC(=O)[C@H](CC(=O)O)NC(=O)[C@H](CO)NC(=O)[C@@H](NC(=O)[C@](C)(Cc1ccccc1F)NC(=O)[C@@H](NC(=O)CNC(=O)[C@H](CCC(=O)O)NC(=O)C(C)(C)NC(=O)[C@@H](N)Cc1ccc(O)cc1)[C@@H](C)O)[C@@H](C)O)[C@@H](C)CC)[C@@H](C)CC)C(=O)N[C@@H](CCCCNC(=O)COCCOCCNC(=O)[C@H]1CC[C@H](CNC(=O)CC[C@H](NC(=O)CCCCCCCCCOc2ccc(C(=O)O)cc2)C(=O)O)CC1)C(=O)NCC(=O)NCC(=O)N1CCC[C@H]1C(=O)N[C@@H](CO)C(=O)N[C@@H](CO)C(=O)NCC(=O)N[C@@H](C)C(=O)N1CCC[C@H]1C(=O)N1CCC[C@H]1C(=O)N1CCC[C@H]1C(=O)N[C@@H](CO)C(N)=O` [Example 473], the EC50 ([1]; hGCGR EC50, nM (SEM, n), cAMP, 37° C., 0.1% bovine casein (no human serum albumin), geometric mean) was over 9950 nM, the EC50 ([1]; hGCGR EC50, nM (SEM, n), cAMP, 37° C., 0.1% bovine casein and 1.0% human serum albumin, geometric mean (SEM, n)) was over 9950 nM and the Emax ([2]; HEK293, read-out: hGIPR Emax, % ± SEM, cAMP, 37° C., 0.1% bovine casein and 1.0% human serum albumin, percent of maximal response to GIP(1-42)NH2) was 92.8%. It also gave an EC50 ([2]; hGIPR EC50, nM (SEM, n), 37° C.) of 0.0163 nM, a Ki [3] of 0.169 nM and an Emax ([4]; HEK293, read-out: hGLP-1R Emax, % ± SEM, cAMP, 37° C., 0.1% bovine casein and 1.0% human serum albumin, percent of maximal response to GLP-1(7-36)NH2) of 114%. For the same compound, the Emax ([4]; HEK293, read-out: hGLP-1R Emax, % ± SEM, cAMP, 37° C., 0.1% bovine casein, percent of maximal response to GLP-1(7-36)NH2, arithmetic mean) was 118% and the EC50 ([4]; 37° C.) was 0.192 nM.
`CC[C@H](C)[C@H](NC(=O)[C@H](CCCN)NC(=O)[C@H](CC(=O)O)NC(=O)[C@H](CC(C)C)NC(=O)[C@](C)(CC(C)C)NC(=O)[C@@H](NC(=O)C(C)(C)NC(=O)[C@H](Cc1ccncc1)NC(=O)[C@H](CC(=O)O)NC(=O)[C@H](CO)NC(=O)[C@@H](NC(=O)[C@](C)(Cc1ccccc1F)NC(=O)[C@@H](NC(=O)CNC(=O)[C@H](CCC(=O)O)NC(=O)C(C)(C)NC(=O)[C@@H](N)Cc1ccc(O)cc1)[C@@H](C)O)[C@@H](C)O)[C@@H](C)CC)C(=O)N[C@@H](C)C(=O)N[C@@H](CCC(N)=O)C(=O)NC(C)(C)C(=O)N[C@@H](CCC(=O)O)C(=O)N[C@@H](Cc1ccccc1)C(=O)N[C@H](C(=O)N[C@@H](CCCCNC(=O)COCCOCCNC(=O)COCCOCCNC(=O)CC[C@H](NC(=O)CCCCCCCCCOc1ccc(C(=O)O)cc1)C(=O)O)C(=O)N[C@@](C)(Cc1ccc(O)cc1)C(=O)N[C@@H](CC(C)C)C(=O)N[C@H](C(=O)N[C@@H](CCCCNC(=O)COCCOCCNC(=O)COCCOCCNC(=O)CC[C@H](NC(=O)CCCCCCCCCOc1ccc(C(=O)O)cc1)C(=O)O)C(=O)NCC(=O)NCC(=O)N1CCC[C@H]1C(=O)N[C@@H](CO)C(=O)N[C@@H](CO)C(=O)NCC(=O)N[C@@H](C)C(=O)N1CCC[C@H]1C(=O)N1CCC[C@H]1C(=O)N1CCC[C@H]1C(=O)N[C@@H](CO)C(N)=O)[C@@H](C)CC)[C@@H](C)CC` [Example 246] gave an EC50 ([1]; hGCGR EC50, nM (SEM, n), 0.1% bovine casein and 1.0% human serum albumin, 37° C., geometric mean) of over 9950 nM, an EC50 ([1]; hGCGR EC50, nM (SEM, n), cAMP, incubated at 37° C., 0.1% bovine casein (no human serum albumin), geometric mean) of over 9950 nM and an Emax ([2]; HEK293, read-out: hGIPR Emax, % ± SEM, 0.1% bovine casein and 1.0% human serum albumin, 37° C., percent of maximal response to GIP(1-42)NH2) of 91%. For the same compound, the Emax ([2]; HEK293, read-out: hGIPR Emax, % ± SEM, percent of maximal response to GIP(1-42)NH2, 37° C., 0.1% bovine casein, arithmetic mean) was 96.9%, the EC50 ([2]; hGIPR EC50, nM (SEM, n), incubated at 37° C.) was 0.0223 nM and the Ki [3] was 0.557 nM. For the same compound, the EC50 ([4]; incubated at 37° C.) was 0.441 nM.

Source: patent publication US20230265151A1, “GIP/GLP1 CO-AGONIST COMPOUNDS” (priority 2020, published 2023)
